Measured values from ChEMBL document CHEMBL5038570, “Discovery of Novel Pyrrolo[2,3-d]pyrimidine-based Derivatives as Potent JAK/HDAC Dual Inhibitors for the Treatment of Refractory Solid Tumors” (J Med Chem, 2022).
Activity calls are given as the source filed them. The calls are words filed in the database; no cut-off is given here.

How the values were obtained:
MDA-MB-231 [1] = assay: Induction of apoptosis in human MDA-MB-231 cells assessed as viable cells at 2.5 uM measured after 48 hrs by annexin V-FITC/propidium iodide staining based flow cytometry (reference value: 85.7%); type: functional
MDA-MB-231 [2] = assay: Induction of apoptosis in human MDA-MB-231 cells assessed as viable cells at 2.5 uM measured after 48 hrs in presence of ruxolitinib by annexin V-FITC/propidium iodide staining based flow cytometry (reference value: 85.7%); type: functional
4T1 [3] = assay: Induction of apoptosis in mouse 4T1 cells assessed as viable cells at 5 uM measured after 48 hrs in presence of ruxolitinib by annexin V-FITC/propidium iodide staining based flow cytometry (reference value: 89.5%); type: functional
4T1 [4] = assay: Induction of apoptosis in mouse 4T1 cells assessed as rly apoptotic cells at 5 uM measured after 48 hrs in presence of ruxolitinib by annexin V-FITC/propidium iodide staining based flow cytometry (reference value: 1.12%); type: functional
4T1 [5] = assay: Induction of apoptosis in mouse 4T1 cells assessed as late apoptotic cells at 5 uM measured after 48 hrs in presence of ruxolitinib by annexin V-FITC/propidium iodide staining based flow cytometry (reference value: 4.99%); type: functional
4T1 [6] = assay: Induction of apoptosis in mouse 4T1 cells assessed as necrotic cells at 5 uM measured after 48 hrs in presence of ruxolitinib by annexin V-FITC/propidium iodide staining based flow cytometry (reference value: 4.35%); type: functional
[7] = biological target: Tyrosine-protein kinase JAK2 (Homo sapiens, UniProt O60674); assay: Inhibition of JAK2 (unknown origin) assessed as inhibition rate at 10 uM incubated for 60 mins by microplate reader analysis relative to control
Sequence of Tyrosine-protein kinase JAK2 (O60674 whole entry): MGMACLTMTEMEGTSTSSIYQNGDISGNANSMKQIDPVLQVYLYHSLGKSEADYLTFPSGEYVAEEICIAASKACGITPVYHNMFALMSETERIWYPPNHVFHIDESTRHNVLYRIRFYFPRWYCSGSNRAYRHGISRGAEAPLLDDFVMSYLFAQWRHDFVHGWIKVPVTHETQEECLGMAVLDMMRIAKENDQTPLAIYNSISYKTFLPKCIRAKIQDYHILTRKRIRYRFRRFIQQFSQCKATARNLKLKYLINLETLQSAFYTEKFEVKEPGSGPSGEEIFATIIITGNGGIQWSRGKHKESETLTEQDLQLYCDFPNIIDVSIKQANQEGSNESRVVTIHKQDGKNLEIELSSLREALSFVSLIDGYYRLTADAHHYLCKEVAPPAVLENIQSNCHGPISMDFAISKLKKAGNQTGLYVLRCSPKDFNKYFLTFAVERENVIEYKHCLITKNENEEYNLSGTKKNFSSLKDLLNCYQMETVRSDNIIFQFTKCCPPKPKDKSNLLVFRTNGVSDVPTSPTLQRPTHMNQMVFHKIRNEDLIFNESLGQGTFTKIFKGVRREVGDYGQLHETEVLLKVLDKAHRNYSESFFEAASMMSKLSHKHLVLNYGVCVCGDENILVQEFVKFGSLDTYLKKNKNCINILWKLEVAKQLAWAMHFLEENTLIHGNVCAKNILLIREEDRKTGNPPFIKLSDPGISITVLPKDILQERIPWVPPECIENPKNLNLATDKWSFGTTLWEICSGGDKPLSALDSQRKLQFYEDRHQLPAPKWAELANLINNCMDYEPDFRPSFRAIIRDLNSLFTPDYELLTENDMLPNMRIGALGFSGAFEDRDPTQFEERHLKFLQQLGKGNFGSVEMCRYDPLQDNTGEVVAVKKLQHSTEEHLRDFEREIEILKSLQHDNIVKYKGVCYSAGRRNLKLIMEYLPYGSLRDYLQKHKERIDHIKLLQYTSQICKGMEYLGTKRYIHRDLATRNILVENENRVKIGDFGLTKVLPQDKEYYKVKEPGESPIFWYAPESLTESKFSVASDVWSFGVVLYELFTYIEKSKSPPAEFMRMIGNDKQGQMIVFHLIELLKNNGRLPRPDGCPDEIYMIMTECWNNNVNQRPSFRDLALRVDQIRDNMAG

MDA-MB-231 [8] = assay: Induction of apoptosis in human MDA-MB-231 cells assessed as early apoptotic cells at 10 uM measured after 48 hrs by annexin V-FITC/propidium iodide staining based flow cytometry (reference value: 3.09%); type: functional
MDA-MB-231 [9] = assay: Induction of apoptosis in human MDA-MB-231 cells assessed as necrotic cells at 10 uM measured after 48 hrs by annexin V-FITC/propidium iodide staining based flow cytometry (reference value: 5.38%); type: functional
4T1 [10] = assay: Induction of apoptosis in mouse 4T1 cells assessed as viable cells at 10 uM measured after 48 hrs by annexin V-FITC/propidium iodide staining based flow cytometry (reference value: 89.5%); type: functional
4T1 [11] = assay: Induction of apoptosis in mouse 4T1 cells assessed as early apoptotic cells at 10 uM measured after 48 hrs by annexin V-FITC/propidium iodide staining based flow cytometry (reference value: 1.12%); type: functional
4T1 [12] = assay: Induction of apoptosis in mouse 4T1 cells assessed as late apoptotic cells at 10 uM measured after 48 hrs by annexin V-FITC/propidium iodide staining based flow cytometry (reference value: 4.99%); type: functional
4T1 [13] = assay: Induction of apoptosis in mouse 4T1 cells assessed as necrotic cells at 10 uM measured after 48 hrs by annexin V-FITC/propidium iodide staining based flow cytometry (reference value: 4.35%); type: functional
MDA-MB-231 [14] = type: functional, Mus musculus; details: dose 100 mg/kg; time 14 day
[15] = biological target: T1, Protein deacetylase HDAC6 (Homo sapiens) (UniProt Q9UBN7); assay: Inhibition of HDAC6 (unknown origin) at 10 uM incubated for 60 min by microplate reader analysis relative to control
T1 sequence (whole entry): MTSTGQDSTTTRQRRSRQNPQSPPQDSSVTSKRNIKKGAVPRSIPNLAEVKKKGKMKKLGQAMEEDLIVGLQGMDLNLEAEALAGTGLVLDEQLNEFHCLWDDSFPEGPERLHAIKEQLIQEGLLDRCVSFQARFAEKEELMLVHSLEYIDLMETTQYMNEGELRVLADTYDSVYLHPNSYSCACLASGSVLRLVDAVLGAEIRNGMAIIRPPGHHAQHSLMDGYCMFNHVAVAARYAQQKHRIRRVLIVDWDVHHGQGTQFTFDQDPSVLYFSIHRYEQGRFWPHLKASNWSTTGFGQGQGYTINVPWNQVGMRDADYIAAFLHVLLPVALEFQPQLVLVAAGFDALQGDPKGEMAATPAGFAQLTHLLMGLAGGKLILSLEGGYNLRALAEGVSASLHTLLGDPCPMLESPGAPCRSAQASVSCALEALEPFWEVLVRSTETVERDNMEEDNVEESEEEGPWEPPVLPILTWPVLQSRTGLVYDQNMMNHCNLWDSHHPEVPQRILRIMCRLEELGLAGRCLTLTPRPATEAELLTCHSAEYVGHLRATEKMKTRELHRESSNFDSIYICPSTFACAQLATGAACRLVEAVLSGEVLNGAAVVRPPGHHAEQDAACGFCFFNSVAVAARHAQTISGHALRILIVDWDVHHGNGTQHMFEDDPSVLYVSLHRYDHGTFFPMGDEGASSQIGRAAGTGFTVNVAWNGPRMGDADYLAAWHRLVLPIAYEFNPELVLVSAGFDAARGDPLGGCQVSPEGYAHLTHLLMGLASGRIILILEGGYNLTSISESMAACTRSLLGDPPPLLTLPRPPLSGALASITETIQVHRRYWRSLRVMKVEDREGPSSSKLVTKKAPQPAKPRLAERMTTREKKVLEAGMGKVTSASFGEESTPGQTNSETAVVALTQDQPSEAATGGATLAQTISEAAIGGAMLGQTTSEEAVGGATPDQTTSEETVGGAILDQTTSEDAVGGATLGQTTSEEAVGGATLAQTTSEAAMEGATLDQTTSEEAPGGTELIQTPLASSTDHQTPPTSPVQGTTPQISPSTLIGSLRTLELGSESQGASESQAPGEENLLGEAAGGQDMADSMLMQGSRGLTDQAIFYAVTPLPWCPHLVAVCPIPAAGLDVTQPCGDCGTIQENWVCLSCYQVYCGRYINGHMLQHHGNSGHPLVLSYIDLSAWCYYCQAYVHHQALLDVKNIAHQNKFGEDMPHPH

inhibition [7] | inhibition [15] | SMILES | Activity (MDA-MB-231 [1]) [%] | Activity (MDA-MB-231 [2]) [%] | Activity (4T1 [3]) [%] | Activity (4T1 [4]) [%] | Activity (4T1 [5]) [%] | Activity (4T1 [6]) [%] | Activity (MDA-MB-231 [8]) [%] | Activity (MDA-MB-231 [9]) [%] | Activity (4T1 [10]) [%] | Activity (4T1 [11]) [%] | Activity (4T1 [12]) [%] | Activity (4T1 [13]) [%] | TGI (MDA-MB-231 [14]) [%]
inactive | – | O=C(CCCCCCC(=O)Nc1ccccc1)NO [VORINOSTAT] | 57.3 | 25.8 | 65.2 | 28.6 | 4.98 | 1.23 | – | – | – | – | – | – | –
– | inactive | N#CC[C@H](C1CCCC1)n1cc(-c2ncnc3[nH]ccc23)cn1 [RUXOLITINIB] | – | – | – | – | – | – | 6.09 | 6.09 | 89 | 2.04 | 4 | 4.98 | 12
